Measured values reported in patent US20080241257A1, “Biodegradable Nanoparticles Incorporating Highly Hydrophilic Positively Charged Drugs” (THE BOARD OF TRUSTEES OF THE UNIVERSITY OF ILLINOIS, priority 2003, published 2008).

Test system: M. tuberculosis Erdman
Test: M. tuberculosis chronic infection mouse model, CFU in the lungs
Assay type: in vivo, BALB/c mice

Structure (SMILES): [H]/N=C(/N)N[C@H]1[C@H](O)[C@@H](O)[C@H](O[C@@H]2O[C@@H](C)[C@](O)(C=O)[C@H]2O[C@@H]2O[C@@H](CO)[C@H](O)[C@@H](O)[C@@H]2NC)[C@@H](N/C(N)=N\[H])[C@@H]1O [SM, streptomycin]
- log CFU in the lungs (100 mg/kg injected subcutaneously (solution in water) daily for 3 weeks, control 6.88): 6.13 log CFU
- reduction in growth of the TB bacilli compared to the control group (injected subcutaneously, 100 mg/kg daily 3 weeks, p<0.01): one
